In ChEMBL document CHEMBL5247598 (Eur J Med Chem, 2022):
Active and inactive are the calls of the source. The calls are words filed in the database; no cut-off is given here.

What was measured:
HEK-293T [1] = test: Cytotoxicity against human HEK293T cells assessed as cell survival rate at 10 uM incubated for 48 hrs by MTT assay; assay type: toxicity, cell-based
NCI/ADR-RES [2] = test: Induction of apoptosis in human NCI-ADR-RES cells assessed as viable cells at 3 uM incubated for 48 hrs by Annexin V-FITC and DAPI staining based flow cytometry (Rvb= 97.9 %); assay type: functional; details: read-out: Activity
NCI/ADR-RES [3] = test: Induction of apoptosis in human NCI-ADR-RES cells assessed as early apoptotic cells at 3 uM incubated for 48 hrs by Annexin V-FITC and DAPI staining based flow cytometry (Rvb= 0.89 %); assay type: functional
NCI/ADR-RES [4] = test: Induction of apoptosis in human NCI-ADR-RES cells assessed as late apoptotic cells at 3 uM incubated for 48 hrs by Annexin V-FITC and DAPI staining based flow cytometry (Rvb= 0.66 %); assay type: functional
MCF7 = test: Antiproliferative activity against human MCF7 cells assessed as reduction in cell viability incubated for 48 hrs by MTT assay; assay type: functional, cell-based; details: MCF7, 48 h, read-out: IC50
NCI/ADR-RES [5] = test: Antiproliferative activity against human multidrug resistant NCI-ADR-RES cells overexpressing P-gp assessed as reduction in cell viability incubated for 48 hrs by MTT assay; assay type: functional, cell-based
[6] = Cytotoxicity against human HEK293T cells assessed as reduction in cell viability incubated for 48 hrs by MTT assay; assay type: toxicity, cell-based, HEK-293T
NCI/ADR-RES [7] = test: Reversal fold, ratio of doxorubicin IC50 to doxorubicin IC50 in presence of 10 uM test compound for reversal of P-gp-mediated multidrug resistance in human NCI-ADR-RES cells incubated for 48 hrs by MTT assay; assay type: functional
A549 = test: Antiproliferative activity against human A549 cells assessed as inhibition of cell growth at 50 uM incubated for 48 hrs by MTT assay; assay type: functional, cell-based
HCT-8 = test: Antiproliferative activity against human HCT-8 cells assessed as inhibition of cell growth at 50 uM incubated for 48 hrs by MTT assay; assay type: functional, cell-based
HEK-293T [8] = test: Cytotoxicity against human HEK293T cells assessed as inhibition of cell growth at 50 uM incubated for 48 hrs by MTT assay; assay type: toxicity, cell-based
[9] = Cytotoxicity against mouse MPC-5 cells assessed as inhibition of cell growth at 50 uM incubated for 48 hrs by MTT assay; assay type: toxicity, cell-based; details: mpc-5, 48 h
L02 = test: Cytotoxicity against human L02 cells assessed as inhibition of cell growth at 50 uM incubated for 48 hrs by MTT assay; assay type: toxicity, cell-based; details: l02, 48 h
NCI/ADR-RES [10] = test: Reversal of P-gp-mediated multidrug resistance in human NCI-ADR-RES cells assessed as potentiation of doxorubicin-induced cytotoxicity incubated for 48 hrs by MTT assay; assay type: functional, cell-based
P-gp = test: Therapeutic index, ratio of IC50 for cytotoxicity against human HEK293T cells to EC50 for reversal of P-gp-mediated multidrug resistance in human NCI-ADR-RES cells; assay type: toxicity, cell-based; details: read-out: Ratio IC50/EC50
NCI/ADR-RES [11] = test: Reversal of P-gp-mediated multidrug resistance in human NCI-ADR-RES cells assessed as change in ABCB1 expression level at 1 to 10 uM incubated for 48 hrs by Western blot analysis; assay type: functional, cell-based; details: dose 1-10 µM
NCI/ADR-RES [12] = test: Reversal of P-gp-mediated multidrug resistance in human NCI-ADR-RES cells assessed as change in ABCB1 expression level at 1 to 10 uM incubated for 48 hrs in presence of doxorubicin by Western blot analysis; assay type: functional, cell-based; details: dose 1-10 µM
[13] = target: ATP-dependent translocase ABCB1 (Homo sapiens, UniProt P08183); test: Effect on P-gp (unknown origin) ATPase activity assessed as increased ATP consumption using Mg-ATP as substrate preincubated for 5 min followed by Mg-ATP addition and measured after 40 mins by P-gp Glo luminescence assay
NCI/ADR-RES [14] = test: Induction of apoptosis in human NCI-ADR-RES cells assessed as necrotic cells at 3 uM incubated for 24 hrs by Annexin V-FITC and DAPI staining based flow cytometry (Rvb= 0.55 %); assay type: functional
NCI/ADR-RES [15] = test: Induction of apoptosis in human NCI-ADR-RES cells assessed as early apoptotic cells at 3 uM incubated for 24 hrs by Annexin V-FITC and DAPI staining based flow cytometry (Rvb= 0.89 %); assay type: functional
NCI/ADR-RES [16] = test: Induction of apoptosis in human NCI-ADR-RES cells assessed as viable cells at 3 uM incubated for 24 hrs by Annexin V-FITC and DAPI staining based flow cytometry (Rvb= 97.9 %); assay type: functional; details: read-out: Activity
NCI/ADR-RES [17] = test: Induction of apoptosis in human NCI-ADR-RES cells assessed as necrotic cells at 8 uM incubated for 24 hrs in presence of doxorubicin by Annexin V-FITC and DAPI staining based flow cytometry (Rvb= 0.55 %); assay type: functional
NCI/ADR-RES [18] = test: Induction of apoptosis in human NCI-ADR-RES cells assessed as late apoptotic cells at 8 uM incubated for 24 hrs in presence of doxorubicin by Annexin V-FITC and DAPI staining based flow cytometry (Rvb= 0.66 %); assay type: functional
NCI/ADR-RES [19] = test: Induction of apoptosis in human NCI-ADR-RES cells assessed as early apoptotic cells at 8 uM incubated for 24 hrs in presence of doxorubicin by Annexin V-FITC and DAPI staining based flow cytometry (Rvb= 0.89 %); assay type: functional
NCI/ADR-RES [20] = test: Induction of apoptosis in human NCI-ADR-RES cells assessed as viable cells at 8 uM incubated for 24 hrs in presence of doxorubicin by Annexin V-FITC and DAPI staining based flow cytometry (Rvb= 97.9 %); assay type: functional; details: read-out: Activity
NCI/ADR-RES [21] = test: Induction of apoptosis in human NCI-ADR-RES cells assessed as necrotic cells at 8 uM incubated for 48 hrs in presence of doxorubicin by Annexin V-FITC and DAPI staining based flow cytometry (Rvb= 0.55 %); assay type: functional
NCI/ADR-RES [22] = test: Induction of apoptosis in human NCI-ADR-RES cells assessed as late apoptotic cells at 8 uM incubated for 48 hrs in presence of doxorubicin by Annexin V-FITC and DAPI staining based flow cytometry (Rvb= 0.66 %); assay type: functional
NCI/ADR-RES [23] = test: Induction of apoptosis in human NCI-ADR-RES cells assessed as early apoptotic cells at 8 uM incubated for 48 hrs in presence of doxorubicin by Annexin V-FITC and DAPI staining based flow cytometry (Rvb= 0.89 %); assay type: functional
NCI-ADR-RES [24] = test: Inhibition of PI3K/AKT signaling pathway in human NCI-ADR-RES cells assessed as increase in Caspase-3 level at 3 uM incubated for 24 to 48 hrs in presence of doxorubicin by Western blot analysis; assay type: cell-based; details: time 24-48 hrs
NCI-ADR-RES [25] = test: Inhibition of PI3K/AKT signaling pathway in human NCI-ADR-RES cells assessed as changes in caspase-6 level at 3 uM incubated for 24 to 48 hrs in presence of doxorubicin by Western blot analysis; assay type: cell-based; details: time 24-48 hrs
NCI-ADR-RES [26] = test: Inhibition of PI3K/AKT signaling pathway in human NCI-ADR-RES cells assessed as decrease in Bcl-2 level at 3 uM incubated for 24 to 48 hrs in presence of doxorubicin by Western blot analysis; assay type: cell-based; details: time 24-48 hrs
NCI-ADR-RES [27] = test: Inhibition of PI3K/AKT signaling pathway in human NCI-ADR-RES cells assessed as decrease in PI3K phosphorylation at 3 uM incubated for 24 to 48 hrs in presence of doxorubicin by Western blot analysis; assay type: cell-based; details: time 24-48 hrs

Sequence of ATP-dependent translocase ABCB1 (P08183 whole entry): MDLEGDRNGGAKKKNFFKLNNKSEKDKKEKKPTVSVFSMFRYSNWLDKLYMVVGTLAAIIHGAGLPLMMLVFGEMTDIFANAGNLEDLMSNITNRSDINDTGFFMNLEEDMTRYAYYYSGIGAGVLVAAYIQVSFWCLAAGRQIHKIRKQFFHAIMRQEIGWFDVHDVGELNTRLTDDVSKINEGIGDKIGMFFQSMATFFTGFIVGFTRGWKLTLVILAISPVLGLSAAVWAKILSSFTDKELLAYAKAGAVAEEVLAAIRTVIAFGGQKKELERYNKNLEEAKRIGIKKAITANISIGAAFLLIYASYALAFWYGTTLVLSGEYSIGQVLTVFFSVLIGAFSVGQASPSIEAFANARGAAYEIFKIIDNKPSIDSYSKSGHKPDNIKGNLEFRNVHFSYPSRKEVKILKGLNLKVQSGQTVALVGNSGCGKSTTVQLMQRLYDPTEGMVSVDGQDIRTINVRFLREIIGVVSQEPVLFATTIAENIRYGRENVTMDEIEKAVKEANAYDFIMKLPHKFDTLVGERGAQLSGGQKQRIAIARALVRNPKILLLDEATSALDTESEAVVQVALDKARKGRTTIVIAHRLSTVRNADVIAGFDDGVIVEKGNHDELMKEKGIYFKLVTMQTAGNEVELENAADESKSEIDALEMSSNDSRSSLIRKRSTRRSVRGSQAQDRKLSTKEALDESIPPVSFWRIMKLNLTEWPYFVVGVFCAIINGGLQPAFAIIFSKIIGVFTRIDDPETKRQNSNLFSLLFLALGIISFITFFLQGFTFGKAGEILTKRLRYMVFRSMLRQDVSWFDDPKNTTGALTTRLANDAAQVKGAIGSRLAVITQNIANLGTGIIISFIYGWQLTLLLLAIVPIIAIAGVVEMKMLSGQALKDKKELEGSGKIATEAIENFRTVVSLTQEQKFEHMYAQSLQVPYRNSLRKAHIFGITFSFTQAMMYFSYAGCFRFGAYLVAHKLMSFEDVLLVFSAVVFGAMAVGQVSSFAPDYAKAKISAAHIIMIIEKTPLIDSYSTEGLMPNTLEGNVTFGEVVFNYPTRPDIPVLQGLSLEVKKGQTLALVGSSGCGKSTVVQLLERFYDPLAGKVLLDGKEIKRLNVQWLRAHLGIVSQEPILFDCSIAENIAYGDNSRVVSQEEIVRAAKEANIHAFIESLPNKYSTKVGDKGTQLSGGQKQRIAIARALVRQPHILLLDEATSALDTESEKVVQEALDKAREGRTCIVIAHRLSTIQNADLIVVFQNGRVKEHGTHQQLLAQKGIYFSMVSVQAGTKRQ

- IC50 (MCF7): > 100 µM
- EC50 [13]: 0.357 µM
Compound: C=C1[C@H](OC(C)=O)[C@@H](OC(C)=O)[C@@H](OC(C)=O)C(C)(C)/C=C/[C@H](C)[C@H](OC(=O)c2ccccc2)[C@@]2(O)C[C@@](C)(OC(=O)C(C)(C)C)[C@H](OC(C)=O)[C@@H]2[C@H]1OCC(C)C
- Activity (HEK-293T [1]): Non-Toxic
- viability at 3 µM (NCI/ADR-RES [2]): 98.4%
- Activity (NCI/ADR-RES [3]): 0.69%
- Activity (NCI/ADR-RES [4]): 0.73%
- IC50 (NCI/ADR-RES [5]): > 100 µM
- IC50 at 48 h [6]: 56.3 µM
- Ratio IC50 (NCI/ADR-RES [7]): 116.6
- Activity (A549): inactive
- Activity (HCT-8): inactive
- Activity (HEK-293T [8]): Non-Toxic
- Activity [9]: Non-Toxic
- Activity (L02): Non-Toxic
- EC50 (NCI/ADR-RES [10]): 0.182 µM
- selectivity ratio (P-gp): 309
- Activity (NCI/ADR-RES [11]): inactive
- Activity (NCI/ADR-RES [12]): Active
- Activity (NCI/ADR-RES [14]): 1.06%
- Activity (NCI/ADR-RES [15]): 0.67%
- viability at 3 µM (NCI/ADR-RES [16]): 97.5%
- Activity (NCI/ADR-RES [17]): 0.24%
- Activity (NCI/ADR-RES [18]): 1.56%
- Activity (NCI/ADR-RES [19]): 10.2%
- viability at 8 µM (NCI/ADR-RES [20]): 87.1%
- Activity (NCI/ADR-RES [21]): 10.7%
- Activity (NCI/ADR-RES [22]): 8.03%
- Activity (NCI/ADR-RES [23]): 16.4%
- inhibition (NCI-ADR-RES [24]): Active
- inhibition (NCI-ADR-RES [25]): inactive
- inhibition (NCI-ADR-RES [26]): Active
- inhibition (NCI-ADR-RES [27]): Active
